These results are taken from US4794123A, “Thiazolo- and thiazino- benzimidazoles and their use as anti-ulcer agents” (John Wyeth & Brother Limited, priority 1983, dated 1988).

A word on the inhibition: it is the drop in the measured response relative to a control, in per cent.

This experiment has as its system rabbit isolated gastric glands. In words: aminopyrine accumulation in rabbit isolated gastric glands (anti-secretory activity, H+/K+ ATPase inhibitors). In kind it is cell-based. The following applies: 10^-4 M, % inhibition of the maximum response to the secretagogue; for inhibition at 100 µM: Oryctolagus cuniculus. As for the experimental part: Compounds of formula I were tested for anti-secretory activity by their ability to inhibit the highly specific proton transporting enzyme H^+ /K^+ ATPase.
Potential H^+ /K^+ ATPase inhibitors were evaluated by a technique involving the measurements of aminopyrine accumulation in rabbit isolated gastric glands. Aminopyrine accumulates in acid-secreting cells; therefore, uptake of aminopyrine is increased by secretagogues and an inhibitor of acid secretion will reduce the response to one or more secretagogues depending upon its site of action. […] The following test procedure is used:
Rabbit gastric glands are isolated from gastric mucosa from the corpus region of the stomach by a method based on one described by Berglindh T., Obrink, K. J., Acta Physiol. Scand.
Results are expressed as the % inhibition of the maximum response to the secretagogue induced by the test compound. An inhibitor of H^+ /K^+ ATPase would be expected to reduce the response to both secretagogues.

Setting [1] is: 14C-aminopyrine uptake stimulated by DBcAMP, read-out: % Inhibition to stimulation by DBcAMP.
Where [2] appears, read: 14C-aminopyrine uptake stimulated by high K+, read-out: % Inhibition to stimulation by K+.

Read-outs that look alike come from different tables or passages of the source.

Consider “6-Ethoxy-2-(2-pyridyl)thiazolo[3,2-a]-benzimidazole and 7-ethoxy-2-(2-pyridyl)thiazolo[3,2-a]benzimidazole”, for which the “% Inhibition to stimulation by DBcAMP” value (14C-aminopyrine uptake stimulated by DBcAMP) came to 68%. Further, the “% Inhibition to stimulation by K+” value (14C-aminopyrine uptake stimulated by high K+) is reported as 162%.
Turning to `CCc1ccc(-c2cn3c(nc4ccccc43)s2)nc1` [2-(2-(5-Ethylpyridyl))thiazolo[3,2-a]-benzaimidazole], the inhibition at 100 µM under setting [1] is 56% and the inhibition at 100 µM under setting [2] came to 142%.
For `c1ccc(-c2cccc(-c3cn4c(nc5ccccc54)s3)n2)cc1` [2-[2-(6-Phenylpyridyl)]thiazolo[3,2-a]benzimidazole], the inhibition at 100 µM by setting is: under setting [1], 22%; under setting [2], 381%.
